# Measured values: PMC6934184, “Selective DNA-PKcs inhibition extends the therapeutic index of localized radiotherapy and chemotherapy” (The Journal of Clinical Investigation, 2019)
# Target: T1, AURKC (Aurora C) (Homo sapiens, UniProt Q9UQB9)
# T1 construct: purchased Thermo Fisher Scientific (Life Technologies) SelectScreen
# Assay: SelectScreen Z'LYTE
# Format: biochemical
# Outline: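 Compound tested in SelectScreen activity assays, Z'LYTE for CSF1R, CDK1/cyclin B and MAP2K6 and Adapta for CAMK1. ATP for CAMK1 was listed as 10, and Km app was used for CSF1R. Results are expressed in percent.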
# T1 sequence (Q9UQB9 whole entry): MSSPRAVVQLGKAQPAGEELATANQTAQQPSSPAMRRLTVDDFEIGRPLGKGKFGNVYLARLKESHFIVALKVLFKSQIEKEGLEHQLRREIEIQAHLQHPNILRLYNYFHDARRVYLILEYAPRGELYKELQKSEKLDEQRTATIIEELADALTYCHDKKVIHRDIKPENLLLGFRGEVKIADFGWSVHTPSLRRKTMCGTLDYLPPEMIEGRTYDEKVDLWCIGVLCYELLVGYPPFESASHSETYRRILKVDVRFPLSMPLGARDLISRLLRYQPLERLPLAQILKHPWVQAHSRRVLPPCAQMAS
structure (smiles),measurement,value
CN(C(=O)CN1CCOCC1)c1ccc2sc3c(-c4cccc5c(=O)cc(N6CC7CCC(C6)O7)oc45)cccc3c2c1 [NU5455],inhibition at 1 µM,-5.4%
